Experimental data taken from patent EP4559473A1, “PEPTIDE FOR THE TREATMENT OF DISEASES ASSOCIATED WITH APOLIPOPROTEIN AI OR TRANSTHYRETIN INVOLVEMENT” (Centro de Ingeniería Genética y Biotecnología, priority 2022, dated 2025).
Ends that are not written are not given here.

Columns and labels:
[1] = Treatment of patients with ischemic heart disease and high blood pressure; format: in vivo; details: six patients, 1 mg every 12 hours intravenously for seven days; clinical and imaging evaluation
Description: It is exemplified with the results of six patients. They presented ischemic heart disease, associated with high blood pressure, which produced a state of severity. They were treated in the Intermediate Care Unit (IMCU) of the "Luis Díaz Soto" hospital in Havana. These patients were treated with a pharmaceutical composition comprising the peptide identified as SEQ ID NO: 1, so that a peptide dose of 1 mg every 12 hours was administered intravenously for seven days. In addition, they received the standard therapy needed for these cases.
The treatment with this peptide was very safe, and verified by monitoring blood biochemistry parameters and differential blood count.

[2] = Treatment of patients with type II diabetes (diabetic decompensation); format: in vivo; details: five patients, 1 mg every 12 hours intravenously for eight days; clinical and imaging evaluation
Description: It is exemplified with ten patients who had diabetic decompensation and reached a state of severity, that let them to be treated in the ICU of the hospital "Luis Díaz Soto" in Havana. Five of these patients were treated with a pharmaceutical composition comprising the peptide identified as SEQ ID NO: 1, so that a peptide dose of 1 mg every 12 hours was administered intravenously for eight days. In addition, they received the standard therapy needed for these cases.
Treatment with this peptide was very safe and was verified by monitoring blood biochemistry parameters and differential blood count.

For “SIDLKDKYKNIGAKLVQLVANNTNEEA [peptide identified as SEQ ID NO: 1]”, the side effects [1] was “No side effects were observed” and the side effects [2] was “No side effects were observed”.
